In brackets after ≈: the same amount, converted by molar mass.
How the values were obtained:
Type in all cases: functional
Klebsiella pneumoniae [1] = test: Antimicrobial activity against Klebsiella pneumoniae PFGE clone B expressing beta-lactamase KPC-2 by Etest
Klebsiella pneumoniae [2] = test: Antimicrobial activity against Klebsiella pneumoniae PFGE clone D expressing beta-lactamase KPC-2 by Etest
Klebsiella pneumoniae [3] = test: Antimicrobial activity against Klebsiella pneumoniae PFGE clone F expressing beta-lactamase KPC-2 by Etest
Klebsiella pneumoniae [4] = test: Antimicrobial activity against Klebsiella pneumoniae PFGE clone E expressing beta-lactamase KPC-2 by Etest
Klebsiella oxytoca [5] = test: Antimicrobial activity against Klebsiella oxytoca expressing beta-lactamase KPC-2 by Etest
Klebsiella pneumoniae [6] = test: Antimicrobial activity against Klebsiella pneumoniae PFGE clone A expressing beta-lactamase KPC-2 by Etest
Enterobacter cloacae [7] = test: Antimicrobial activity against Enterobacter cloacae expressing beta-lactamase KPC-2 by Etest
Klebsiella pneumoniae [8] = test: Antimicrobial activity against Klebsiella pneumoniae PFGE clone C expressing beta-lactamase KPC-2 by Etest
Klebsiella pneumoniae [9] = test: Antimicrobial activity against Klebsiella pneumoniae PFGE clone C expressing beta-lactamase KPC-2 by Etest in presence of beta-lactamase inhibitor Tazobactam
Klebsiella pneumoniae [10] = test: Antimicrobial activity against Klebsiella pneumoniae PFGE clone D expressing beta-lactamase KPC-2 by Etest in presence of beta-lactamase inhibitor Tazobactam
Enterobacter cloacae [11] = test: Antimicrobial activity against Enterobacter cloacae expressing beta-lactamase KPC-2 by Etest in presence of beta-lactamase inhibitor Tazobactam
Klebsiella pneumoniae [12] = test: Antimicrobial activity against Klebsiella pneumoniae PFGE clone A expressing beta-lactamase KPC-2 by Etest in presence of beta-lactamase inhibitor Tazobactam
Klebsiella pneumoniae [13] = test: Antimicrobial activity against Klebsiella pneumoniae PFGE clone B expressing beta-lactamase KPC-2 by Etest in presence of beta-lactamase inhibitor Tazobactam
Klebsiella oxytoca [14] = test: Antimicrobial activity against Klebsiella oxytoca expressing beta-lactamase KPC-2 by Etest in presence of beta-lactamase inhibitor Tazobactam
Klebsiella pneumoniae [15] = test: Antimicrobial activity against Klebsiella pneumoniae PFGE clone E expressing beta-lactamase KPC-2 by Etest in presence of beta-lactamase inhibitor Tazobactam
Klebsiella pneumoniae [16] = test: Antimicrobial activity against Klebsiella pneumoniae PFGE clone F expressing beta-lactamase KPC-2 by Etest in presence of beta-lactamase inhibitor Tazobactam

| MIC (Klebsiella pneumoniae [9]) [µg/mL] | MIC (Klebsiella pneumoniae [10]) [µg/mL] | MIC (Enterobacter cloacae [11]) [µg/mL] | MIC (Klebsiella pneumoniae [12]) [µg/mL] | MIC (Klebsiella pneumoniae [13]) [µg/mL] | MIC (Klebsiella oxytoca [14]) [µg/mL] | MIC (Klebsiella pneumoniae [15]) [µg/mL] | MIC (Klebsiella pneumoniae [16]) [µg/mL] | Molecule | MIC (Klebsiella pneumoniae [1]) [µg/mL] | MIC (Klebsiella pneumoniae [2]) [µg/mL] | MIC (Klebsiella pneumoniae [3]) [µg/mL] | MIC (Klebsiella pneumoniae [4]) [µg/mL] | MIC (Klebsiella oxytoca [5]) [µg/mL] | MIC (Klebsiella pneumoniae [6]) [µg/mL] | MIC (Enterobacter cloacae [7]) [µg/mL] | MIC (Klebsiella pneumoniae [8]) [µg/mL] |
| --- | --- | --- | --- | --- | --- | --- | --- | --- | --- | --- | --- | --- | --- | --- | --- | --- |
|  |  |  |  |  |  |  |  | C[C@@H](O)[C@H]1C(=O)N2C(C(=O)O)=C(S[C@@H]3CN[C@H](C(=O)Nc4cccc(C(=O)O)c4)C3)[C@H](C)[C@H]12 | > 32 | > 16 | > 32 | > 32 | > 16 | > 32 | > 32 | > 32 |
|  |  |  |  |  |  |  |  | NCC[C@H](O)C(=O)N[C@@H]1C[C@H](N)[C@@H](O[C@H]2O[C@H](CN)[C@@H](O)[C@H](O)[C@H]2O)[C@H](O)[C@H]1O[C@H]1O[C@H](CO)[C@@H](O)[C@H](N)[C@H]1O [AMIKACIN] | > 1 | > 256 | 2 (≈ 3.42 µM) | > 1 | 2 (≈ 3.42 µM) | > 256 | > 256 | > 1 |
|  |  |  |  |  |  |  |  | CO[C@@]1(NC(=O)Cc2cccs2)C(=O)N2C(C(=O)O)=C(COC(N)=O)CS[C@@H]21 [CEFOXITIN] | > 128 | > 64 | > 32 | 32 (≈ 74.9 µM) | > 256 | > 256 | > 256 | > 128 |
|  |  |  |  |  |  |  |  | CC(C)(O/N=C(\C(=O)N[C@@H]1C(=O)N2C(C(=O)[O-])=C(C[n+]3ccccc3)CS[C@H]12)c1csc(N)n1)C(=O)O [CEFTAZIDIME] | > 128 | > 32 | > 256 | > 32 | 128 (≈ 234 µM) | > 256 | > 256 | > 256 |
|  |  |  |  |  |  |  |  | C[C@@H](O)[C@H]1C(=O)N2C(C(=O)O)=C(SCCNC=N)C[C@H]12 [IMIPENEM ANHYDROUS] | > 16 | > 2 | > 32 | > 16 | > 32 | > 32 | > 32 | > 32 |
|  |  |  |  |  |  |  |  | C[C@@H](O)[C@H]1C(=O)N2C(C(=O)O)=C(S[C@@H]3CN[C@H](C(=O)N(C)C)C3)[C@H](C)[C@H]12 [MEROPENEM] | > 32 | > 2 | > 32 | > 16 | > 32 | > 32 | > 32 | > 32 |
| > 256 | > 256 | > 256 | > 256 | > 256 | > 256 | > 256 | > 256 | CCN1CCN(C(=O)N[C@@H](C(=O)N[C@@H]2C(=O)N3[C@@H]2SC(C)(C)[C@@H]3C(=O)O)c2ccccc2)C(=O)C1=O [PIPERACILLIN] |  |  |  |  |  |  |  |  |
|  |  |  |  |  |  |  |  | CN(C)c1cc(NC(=O)CNC(C)(C)C)c(O)c2c1C[C@H]1C[C@H]3[C@H](N(C)C)C(O)=C(C(N)=O)C(=O)[C@@]3(O)C(O)=C1C2=O [TIGECYCLINE] | 0.5 (≈ 0.854 µM) | 0.5 (≈ 0.854 µM) | 0.38 (≈ 0.649 µM) | 1 (≈ 1.71 µM) | 2 (≈ 3.41 µM) | 2 (≈ 3.41 µM) | 2 (≈ 3.41 µM) | 0.5 (≈ 0.854 µM) |
|  |  |  |  |  |  |  |  | COLISTIN | 0.5 | 0.5 | 0.5 | 0.5 | 1 | 0.25 | 0.5 | 0.5 |

Reference: ChEMBL document CHEMBL1649221, “Novel genetic environment of the carbapenem-hydrolyzing beta-lactamase KPC-2 among Enterobacteriaceae in China” (2009)
